Entries after “also recorded” stand apart in the source; their conditions may differ. Where two headings read alike, the source gives them in different places.
Legend:
[1] = target: complex III of L. donovani (Leishmania donovani, UniProt A5HU08); test: Complex III assay in mitochondria-enriched cell lysates
Protocol: Measurement of complex III activity and inhibition were performed as described previously ([6]).

[2] = system: hiPSc-CMs (cardiomyocytes); test: hiPSc-CM multielectrode (MEA) assay; format: cell-based, human; details: 0.37, 1.11, 3.33, 10 and 30 µM
Protocol: The hIPSc-CM assay was conducted to identify DNDI-6174-induced changes in field potential duration (FPD ≈ QT interval), total spike amplitude (TSA ≈ QRS interval) and beat rate. Inducible pluripotent stem cell-derived cardiomyocytes (hiPSc-CMs, iCell2, Cellular Dynamics) were maintained in culture medium (50,000 cells/well) for 7 days. Full media changes were done every 48 h. Following baseline recording, and right after the 1 hour compound treatment time (n=8/concentration, 5 concentrations), 1 min recording of activity was taken daily starting on Day 3 through Day 7 using the Maestro multi-electrode Array System (Axion BioSystems; 48 or 96-well plate). 3μM Quinidine was used as a control for hERG and hNaV1.5 block.

[3] = system: T. b. rhodesiense (bloodstream form); test: In vitro activity against other kinetoplastid parasites; format: cell-based; details: Trypanosoma brucei, one range given for T. brucei brucei and T. b. rhodesiense
[4] = system: remaining CYP isoforms other than CYP1A2 and CYP3A4/5 (CYP2B6, CYP2C8, CYP2C9, CYP2C19, CYP2D6); test: Cytochrome P450 inhibition, human liver microsomes; format: in vitro ADME; details: remaining isoforms (other than CYP1A2 and CYP3A4/5)
Protocol: Direct CYP inhibition studies were conducted using conditions described previously ([43]) following incubation of isoform-specific substrates with human liver microsomes. The formation of known metabolites mediated by a specific CYP isoform was monitored. CYP isoform-specific pathways (and positive control inhibitors) included CYP1A2: phenacetin O-deethylation (furafylline), CYP2B6: bupropion hydroxylation (PPP), CYP2C8: amodiaquine deethylation (quercetin) CYP2C9: tolbutamide methylhydroxylation (sulfaphenazole), CYP2C19: (S)-mephenytoin 4’-hydroxylation (ticlopidine), CYP2D6: dextromethorphan O-demethylation (quinidine), and CYP3A: midazolam 1’-hydroxylation and testosterone 6β-hydroxylation (ketoconazole). […] The organic solvent content was maintained at less than 1% (v/v). NADPH was added to initiate the reaction which was then quenched by the addition of acetonitrile containing internal standard at specified times. Concentrations of the isoform-specific metabolites were quantified by LC-MS (Waters Xevo TQD triple quadrupole MS coupled to a Waters Acquity UPLC system) relative to calibration standards prepared in pre-quenched microsomal matrix.

[5] = system: T. cruzi (Tulahuen strain); test: In vitro activity against other kinetoplastid parasites; format: cell-based; details: Trypanosoma cruzi
[6] = pKa and Log D7.4 determination; format: physicochemical
Protocol: The ionization constant (pKa), octanol-pH 7.4 buffer partition coefficient (Log D7.4), solubility in biorelevant buffers (FaSSIF-V2, FeSSIF-V2, FaSSGF and pH 7.4 phosphate buffered saline (PBS)) and Caco-2 permeability were determined according to previously published methods ([10]).

[7] = In vivo pharmacokinetics; design: species or system female BALB/c mice; details: for AUC(0-t) / AUC / Cmax / Cmax at 5 days: mice, 5 days; for AUC(0-t): read-out: AUC0-24 (first dose); for AUC: read-out: AUC96-120 (last dose); for Cmax: read-out: Cmax (first dose); for Cmax at 5 days: read-out: Cmax (last dose)
[8] = target: T1, β2 (Homo sapiens, UniProt P07550); test: In vitro pharmacology panel (Eurofins); format: binding; details: read-out: activity (% of DMSO control)
T1 construct: purchased Eurofins (Cerep/DiscoverX SafetyScreen44 in vitro pharmacology panel)
Excerpt: (§1) Listed values represent the percent change relative to the DMSO control activity. When an IC50 had to be determined, eight different concentrations were included. All values are the mean of assay readout duplicates.

[9] = target: T2, 5-HT1A (Homo sapiens, UniProt P08908); test: In vitro pharmacology panel (Eurofins); format: binding; details: read-out: activity (% of DMSO control)
T2 construct: purchased Eurofins (Cerep/DiscoverX SafetyScreen44 in vitro pharmacology panel)
Excerpt: as §1

[10] = target: T3, 5-HT1B (Rattus norvegicus, UniProt P28564); test: In vitro pharmacology panel (Eurofins); format: binding; details: read-out: activity (% of DMSO control)
T3 construct: purchased Eurofins (Cerep/DiscoverX SafetyScreen44 in vitro pharmacology panel)
Excerpt: as §1

[11] = target: T4, MAO-A (Rattus norvegicus, UniProt P21396); test: In vitro pharmacology panel (Eurofins); format: binding; details: read-out: activity (% of DMSO control)
T4 construct: purchased Eurofins (Cerep/DiscoverX SafetyScreen44 in vitro pharmacology panel)
Excerpt: as §1

[12] = target: T5, 5-HT2B (Homo sapiens, UniProt P41595); test: In vitro pharmacology panel (Eurofins); format: binding; details: read-out: activity (% of DMSO control)
T5 construct: purchased Eurofins (Cerep/DiscoverX SafetyScreen44 in vitro pharmacology panel)
Excerpt: as §1

[13] = target: T6, N neuronal α4β2 (Homo sapiens, UniProt P17787+P43681); test: In vitro pharmacology panel (Eurofins); format: binding; details: read-out: activity (% of DMSO control)
T6 construct: purchased Eurofins (Cerep/DiscoverX SafetyScreen44 in vitro pharmacology panel)
Excerpt: as §1

[14] = target: T7, κ (KOP) (Rattus norvegicus, UniProt P34975); test: In vitro pharmacology panel (Eurofins); format: binding; details: read-out: activity (% of DMSO control)
T7 construct: purchased Eurofins (Cerep/DiscoverX SafetyScreen44 in vitro pharmacology panel)
Excerpt: as §1

[15] = target: T8, α2A (Homo sapiens, UniProt P08913); test: In vitro pharmacology panel (Eurofins); format: binding; details: read-out: activity (% of DMSO control)
T8 construct: purchased Eurofins (Cerep/DiscoverX SafetyScreen44 in vitro pharmacology panel)
Excerpt: as §1

[16] = target: T9, δ (DOP) (Homo sapiens, UniProt P41143); test: In vitro pharmacology panel (Eurofins); format: binding; details: read-out: activity (% of DMSO control)
T9 construct: purchased Eurofins (Cerep/DiscoverX SafetyScreen44 in vitro pharmacology panel)
Excerpt: as §1

[17] = target: T10, D1 (Homo sapiens, UniProt P21728); test: In vitro pharmacology panel (Eurofins); format: binding; details: read-out: activity (% of DMSO control)
T10 construct: purchased Eurofins (Cerep/DiscoverX SafetyScreen44 in vitro pharmacology panel)
Excerpt: as §1

[18] = target: T11, D2S (Homo sapiens, UniProt P14416); test: In vitro pharmacology panel (Eurofins); format: binding; details: read-out: activity (% of DMSO control)
T11 construct: purchased Eurofins (Cerep/DiscoverX SafetyScreen44 in vitro pharmacology panel)
Excerpt: as §1

[19] = target: T12, CCK1 (CCKA) (Homo sapiens, UniProt P32238); test: In vitro pharmacology panel (Eurofins); format: binding; details: read-out: activity (% of DMSO control)
T12 construct: purchased Eurofins (Cerep/DiscoverX SafetyScreen44 in vitro pharmacology panel)
Excerpt: as §1

[20] = target: T13, CB2 (Homo sapiens, UniProt P34972); test: In vitro pharmacology panel (Eurofins); format: binding; details: read-out: activity (% of DMSO control)
T13 construct: purchased Eurofins (Cerep/DiscoverX SafetyScreen44 in vitro pharmacology panel)
Excerpt: as §1

[21] = target: T14, dopamine transporter (Homo sapiens, UniProt Q01959); test: In vitro pharmacology panel (Eurofins); format: binding; details: read-out: activity (% of DMSO control)
T14 construct: purchased Eurofins (Cerep/DiscoverX SafetyScreen44 in vitro pharmacology panel)
Excerpt: as §1

[22] = target: T15, 5-HT2A (Homo sapiens, UniProt P28223); test: In vitro pharmacology panel (Eurofins); format: binding; details: read-out: activity (% of DMSO control)
T15 construct: purchased Eurofins (Cerep/DiscoverX SafetyScreen44 in vitro pharmacology panel)
Excerpt: as §1

[23] = target: T16, A2A (Homo sapiens, UniProt P29274); test: In vitro pharmacology panel (Eurofins); format: binding; details: read-out: activity (% of DMSO control)
T16 construct: purchased Eurofins (Cerep/DiscoverX SafetyScreen44 in vitro pharmacology panel)
Excerpt: as §1

[24] = target: T17, H2 (Homo sapiens, UniProt P25021); test: In vitro pharmacology panel (Eurofins); format: binding; details: read-out: activity (% of DMSO control)
T17 construct: purchased Eurofins (Cerep/DiscoverX SafetyScreen44 in vitro pharmacology panel)
Excerpt: as §1

[25] = target: T18, CB1 (Homo sapiens, UniProt P21554); test: In vitro pharmacology panel (Eurofins); format: binding; details: read-out: activity (% of DMSO control)
T18 construct: purchased Eurofins (Cerep/DiscoverX SafetyScreen44 in vitro pharmacology panel)
Excerpt: as §1

[26] = female, BALB/c, mouse, plasma, oral 3.6 mg/kg bid
[27] = female, BALB/c, mouse, plasma, oral 7.1 mg/kg bid
[28] = female, BALB/c, mouse, plasma, oral 12.5 mg/kg bid

complex III of L. donovani, sequence (A5HU08 1-290): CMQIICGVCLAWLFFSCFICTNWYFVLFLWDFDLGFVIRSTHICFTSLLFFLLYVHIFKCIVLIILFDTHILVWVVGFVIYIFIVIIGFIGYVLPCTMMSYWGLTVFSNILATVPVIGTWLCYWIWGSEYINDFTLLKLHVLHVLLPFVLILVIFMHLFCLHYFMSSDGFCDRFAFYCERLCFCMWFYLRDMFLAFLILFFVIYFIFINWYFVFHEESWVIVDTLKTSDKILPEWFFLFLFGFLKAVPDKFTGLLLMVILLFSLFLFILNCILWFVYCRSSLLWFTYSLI
complex III of L. donovani, sequence (A0A3S7WPP0 1-258 partner): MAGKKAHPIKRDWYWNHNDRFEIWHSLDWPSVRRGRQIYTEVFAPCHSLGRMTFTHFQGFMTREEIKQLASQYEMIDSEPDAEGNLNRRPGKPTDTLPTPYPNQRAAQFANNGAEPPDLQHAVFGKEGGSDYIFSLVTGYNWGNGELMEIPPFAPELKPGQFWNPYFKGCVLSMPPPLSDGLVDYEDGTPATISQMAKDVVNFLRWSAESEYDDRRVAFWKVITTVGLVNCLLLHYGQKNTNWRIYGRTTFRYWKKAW
T17 sequence (P25021 whole entry): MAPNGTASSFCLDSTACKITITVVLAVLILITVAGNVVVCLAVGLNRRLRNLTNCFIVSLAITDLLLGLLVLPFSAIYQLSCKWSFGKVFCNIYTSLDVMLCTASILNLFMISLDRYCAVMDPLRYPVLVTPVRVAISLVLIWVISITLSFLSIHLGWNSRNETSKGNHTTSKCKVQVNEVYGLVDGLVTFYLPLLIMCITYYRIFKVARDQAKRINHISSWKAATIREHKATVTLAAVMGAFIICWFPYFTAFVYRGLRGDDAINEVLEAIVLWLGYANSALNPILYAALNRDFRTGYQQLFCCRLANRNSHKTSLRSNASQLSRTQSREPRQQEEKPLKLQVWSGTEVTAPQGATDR
T18 sequence (P21554 whole entry): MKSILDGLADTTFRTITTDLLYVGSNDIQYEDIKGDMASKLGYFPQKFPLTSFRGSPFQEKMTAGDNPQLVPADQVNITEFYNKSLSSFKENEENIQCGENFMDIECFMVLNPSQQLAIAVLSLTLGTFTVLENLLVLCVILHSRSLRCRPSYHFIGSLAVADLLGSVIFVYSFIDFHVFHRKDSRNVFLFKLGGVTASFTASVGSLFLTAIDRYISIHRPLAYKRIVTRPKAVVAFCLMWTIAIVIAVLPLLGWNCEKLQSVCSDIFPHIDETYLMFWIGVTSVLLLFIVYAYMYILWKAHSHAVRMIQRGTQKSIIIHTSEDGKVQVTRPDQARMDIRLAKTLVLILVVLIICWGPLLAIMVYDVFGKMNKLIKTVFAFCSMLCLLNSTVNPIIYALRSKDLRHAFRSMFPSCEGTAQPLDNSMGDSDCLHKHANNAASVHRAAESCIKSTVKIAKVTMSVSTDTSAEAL
T12 sequence (P32238 whole entry): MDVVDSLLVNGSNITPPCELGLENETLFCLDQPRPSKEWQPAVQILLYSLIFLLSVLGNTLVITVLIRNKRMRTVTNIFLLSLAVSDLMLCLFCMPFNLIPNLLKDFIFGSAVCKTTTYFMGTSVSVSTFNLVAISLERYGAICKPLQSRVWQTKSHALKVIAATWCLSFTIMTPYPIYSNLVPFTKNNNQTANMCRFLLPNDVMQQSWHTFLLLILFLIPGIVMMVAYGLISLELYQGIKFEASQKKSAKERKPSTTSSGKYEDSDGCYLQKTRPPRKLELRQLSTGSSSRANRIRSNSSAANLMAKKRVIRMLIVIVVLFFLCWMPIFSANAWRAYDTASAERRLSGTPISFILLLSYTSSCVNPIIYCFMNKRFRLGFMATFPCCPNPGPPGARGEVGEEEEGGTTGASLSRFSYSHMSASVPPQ
T8 sequence (P08913 whole entry): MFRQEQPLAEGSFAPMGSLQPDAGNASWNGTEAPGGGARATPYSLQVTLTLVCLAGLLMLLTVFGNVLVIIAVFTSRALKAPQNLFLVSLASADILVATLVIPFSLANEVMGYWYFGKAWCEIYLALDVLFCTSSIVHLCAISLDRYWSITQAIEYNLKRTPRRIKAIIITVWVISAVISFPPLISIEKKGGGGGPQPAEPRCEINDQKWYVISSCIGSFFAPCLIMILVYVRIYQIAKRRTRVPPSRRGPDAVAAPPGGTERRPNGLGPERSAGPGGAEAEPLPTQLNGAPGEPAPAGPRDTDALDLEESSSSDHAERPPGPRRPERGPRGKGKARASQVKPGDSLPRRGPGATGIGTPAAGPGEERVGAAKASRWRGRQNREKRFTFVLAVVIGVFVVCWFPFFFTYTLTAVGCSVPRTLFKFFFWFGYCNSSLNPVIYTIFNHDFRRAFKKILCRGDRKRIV
T4 sequence (P21396 whole entry): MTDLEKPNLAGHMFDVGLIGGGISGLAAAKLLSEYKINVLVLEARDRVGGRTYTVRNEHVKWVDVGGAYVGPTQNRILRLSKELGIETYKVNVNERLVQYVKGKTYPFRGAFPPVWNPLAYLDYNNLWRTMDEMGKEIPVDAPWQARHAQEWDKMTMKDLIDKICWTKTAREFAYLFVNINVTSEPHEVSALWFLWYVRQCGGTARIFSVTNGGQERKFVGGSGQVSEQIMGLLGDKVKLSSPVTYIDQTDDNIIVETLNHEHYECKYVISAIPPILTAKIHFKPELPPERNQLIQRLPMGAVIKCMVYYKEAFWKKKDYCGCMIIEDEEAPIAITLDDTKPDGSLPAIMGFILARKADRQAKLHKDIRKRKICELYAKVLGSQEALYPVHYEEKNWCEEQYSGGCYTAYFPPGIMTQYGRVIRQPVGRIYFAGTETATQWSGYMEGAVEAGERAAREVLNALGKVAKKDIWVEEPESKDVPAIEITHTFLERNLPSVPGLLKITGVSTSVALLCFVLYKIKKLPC
T3 sequence (P28564 whole entry): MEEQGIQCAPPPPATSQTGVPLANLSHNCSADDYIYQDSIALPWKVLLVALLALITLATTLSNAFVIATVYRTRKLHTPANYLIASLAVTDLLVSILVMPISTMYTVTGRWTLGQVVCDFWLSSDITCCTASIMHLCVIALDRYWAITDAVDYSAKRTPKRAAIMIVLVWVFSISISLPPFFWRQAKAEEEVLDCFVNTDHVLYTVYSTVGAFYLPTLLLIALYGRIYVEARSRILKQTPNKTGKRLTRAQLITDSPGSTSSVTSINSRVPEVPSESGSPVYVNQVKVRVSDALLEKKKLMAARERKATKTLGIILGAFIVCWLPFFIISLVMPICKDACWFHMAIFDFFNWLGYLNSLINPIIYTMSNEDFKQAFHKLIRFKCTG
T15 sequence (P28223 whole entry): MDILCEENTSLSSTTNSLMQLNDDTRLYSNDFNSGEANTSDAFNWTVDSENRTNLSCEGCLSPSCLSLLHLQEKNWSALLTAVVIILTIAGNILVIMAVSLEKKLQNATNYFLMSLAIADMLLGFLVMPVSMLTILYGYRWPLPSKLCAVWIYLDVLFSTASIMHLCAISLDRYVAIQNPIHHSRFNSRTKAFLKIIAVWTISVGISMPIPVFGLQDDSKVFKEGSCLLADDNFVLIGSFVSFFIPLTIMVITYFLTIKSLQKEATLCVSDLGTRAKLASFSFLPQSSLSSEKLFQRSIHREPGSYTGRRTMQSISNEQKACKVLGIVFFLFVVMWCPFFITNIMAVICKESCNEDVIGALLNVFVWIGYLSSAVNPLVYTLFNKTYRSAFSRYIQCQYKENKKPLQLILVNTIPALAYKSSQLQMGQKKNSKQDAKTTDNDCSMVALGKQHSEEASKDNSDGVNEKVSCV
T11 sequence (P14416 1-414 isoform P14416-2): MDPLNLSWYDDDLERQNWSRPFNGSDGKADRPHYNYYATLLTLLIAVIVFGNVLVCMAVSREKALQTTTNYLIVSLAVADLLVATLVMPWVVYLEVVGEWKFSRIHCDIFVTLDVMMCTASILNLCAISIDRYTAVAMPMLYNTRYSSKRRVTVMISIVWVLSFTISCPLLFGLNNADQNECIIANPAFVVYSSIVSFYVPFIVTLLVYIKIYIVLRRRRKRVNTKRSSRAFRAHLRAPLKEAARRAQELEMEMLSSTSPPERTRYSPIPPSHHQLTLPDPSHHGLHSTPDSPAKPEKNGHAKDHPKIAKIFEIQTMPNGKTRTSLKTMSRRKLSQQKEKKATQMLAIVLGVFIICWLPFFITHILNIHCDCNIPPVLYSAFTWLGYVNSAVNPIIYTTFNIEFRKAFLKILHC
T5 sequence (P41595 whole entry): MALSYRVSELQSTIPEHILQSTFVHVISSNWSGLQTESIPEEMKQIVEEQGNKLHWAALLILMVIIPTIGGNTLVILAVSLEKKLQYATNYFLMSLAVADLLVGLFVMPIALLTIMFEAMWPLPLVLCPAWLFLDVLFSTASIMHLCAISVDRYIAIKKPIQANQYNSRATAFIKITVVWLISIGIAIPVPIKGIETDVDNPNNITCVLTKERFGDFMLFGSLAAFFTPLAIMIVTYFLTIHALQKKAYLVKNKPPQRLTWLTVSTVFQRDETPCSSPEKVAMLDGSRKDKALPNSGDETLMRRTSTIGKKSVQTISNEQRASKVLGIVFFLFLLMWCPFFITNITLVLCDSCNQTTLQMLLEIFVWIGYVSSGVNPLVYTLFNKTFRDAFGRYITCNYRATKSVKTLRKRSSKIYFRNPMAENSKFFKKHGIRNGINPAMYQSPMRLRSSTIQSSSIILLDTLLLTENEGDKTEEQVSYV
T13 sequence (P34972 whole entry): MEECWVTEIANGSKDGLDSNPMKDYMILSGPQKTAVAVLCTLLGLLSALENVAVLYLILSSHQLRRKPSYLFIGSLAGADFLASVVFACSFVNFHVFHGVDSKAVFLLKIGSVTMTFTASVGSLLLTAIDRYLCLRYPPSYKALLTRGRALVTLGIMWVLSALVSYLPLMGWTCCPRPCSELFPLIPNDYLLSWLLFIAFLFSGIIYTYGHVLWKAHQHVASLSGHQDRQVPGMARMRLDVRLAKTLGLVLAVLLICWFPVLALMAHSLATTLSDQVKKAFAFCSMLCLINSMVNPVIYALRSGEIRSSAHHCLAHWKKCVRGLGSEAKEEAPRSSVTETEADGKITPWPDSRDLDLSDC

Cc1[nH]c2nc(N)nc(C)c2c1-c1ccc(C#N)c2c1OCO2 [DNDI-6174]
IC50 ([1]; lysates from axenic amastigote stage): 2 ± 0.5 nM
IC50 ([1]; lysates from promastigote stage): 8 ± 1.7 nM
field potential duration, spike amplitude and beat period, in words [2]: no notable change in the field potential duration; also recorded: No significant change in the field potential
EC50 [3]: 5000 to 20000 nM
IC50 [4]: > 15000 nM
EC50 [5]: < 5 nM
pKa (measured) [6]: 5.58
Log D7.4 (measured) ([6]; octanol-pH 7.4 buffer): 2.57
logD ([6]; octanol/pH 7.4 buffer, pH 7.4, octanol-pH 7.4 buffer, read-out: Log D7.4 (measured)): 2.6
pKa ([6]; read-out: pKa (measured)): 5.6
increase in Cmax over the 5-day dosing period ([7]; bid dosing in mice): approximately 2 fold
clearance ([7]; female, BALB/c, mouse, plasma, iv, 2 mg/kg, Mouse, read-out: Measured in vivo CLplasma): 7.5 mL/min/kg
AUC(0-t) [7, 26]: 10600 ng·h/mL
AUC [7, 26]: 15700 ng·h/mL
Cmax [7, 26]: 600 ng/mL
Cmax at 5 days [7, 26]: 1350 ng/mL
AUC(0-t) [7, 27]: 35500 ng·h/mL
AUC [7, 27]: 37000 ng·h/mL
Cmax [7, 27]: 1930 ng/mL
Cmax at 5 days [7, 27]: 3040 ng/mL
AUC(0-t) [7, 28]: 94500 ng·h/mL
AUC [7, 28]: 93300 ng·h/mL
Cmax [7, 28]: 3830 ng/mL
Cmax at 5 days [7, 28]: 6810 ng/mL
AUC(0-inf) ([7]; female, BALB/c, plasma, Mouse, intravenous 2.0 mg/kg, read-out: Plasma AUC0-inf): 4470 ng·h/mL
half-life ([7]; female, BALB/c, plasma, Mouse, oral 25 mg/kg, read-out: Apparent t1/2 (converted)): 3.7 h
AUC(0-inf) ([7]; female, BALB/c, plasma, Mouse, oral 25 mg/kg, read-out: Plasma AUC0-∞): 75500 ng·h/mL
remaining activity at 10 µM [8]: 102%
remaining activity at 10 µM [9]: 107%
remaining activity at 10 µM [10]: 91.4%
remaining activity at 10 µM [11]: 94.3%
remaining activity at 10 µM [12]: 81.4%
remaining activity at 10 µM [13]: 100%
remaining activity at 10 µM [14]: 90.6%
remaining activity at 10 µM [15]: 60.3%
remaining activity at 10 µM [16]: 102%
remaining activity at 10 µM [17]: 63.1%
remaining activity at 10 µM [18]: 77.6%
remaining activity at 10 µM [19]: 126%
remaining activity at 10 µM [20]: 96.1%
remaining activity at 10 µM [21]: 60.6%
remaining activity at 10 µM [22]: 93.9%
remaining activity at 10 µM [23]: 83.8%
remaining activity at 10 µM [24]: 120%
remaining activity at 10 µM [25]: 104%

Source: publication PMC7615677 (Science translational medicine, 2023)
